Measurements taken from US20110152267A1, “Compositions and Methods for Treating Hyperproliferative Disorders” (Texas Tech University System, priority 2009, published 2011).

How the values were obtained:
Assay type in all cases: cell-based, human
[1] = system: A-549 lung adenocarcinoma cell line; test: DIMSCAN cytotoxicity, fenretinide + L-threo-sphinganines 3:1 (Example B13); details: 96 h
Experimental: (§1) Cytotoxicity Assay—Once again, cytotoxicity is determined using the DIMSCAN assay system (R. Proffitt et al., Cytometry 24, 204-213 (1996); T. Frgala et al., Mol Cancer Ther. 6:886-97, 2007). The system employs digital imaging microscopy to quantify viable cells, which selectively accumulate fluorescein diacetate to become brightly fluorescent. The system is capable of measuring cytotoxicity over a 4-5 log dynamic range by quenching the residual fluorescence of dead and dying cells with eosin Y and quantifying the total fluorescence of viable cells using digital thresholding. Measured fluorescence is directly proportionate to the number of viable cells. A comparison of the total fluorescence of a drug-treated cell population to the fluorescence of a similar number of untreated cells yields a survival fraction. In brief, 2000 to 10,000 cells/well (depending on size and growth rates) are replicate plated into 60 wells of a 96-well tissue culture plate in 0.1 mL of whole medium and allowed to attach overnight. Drug(s) are then added in 0.05 mL of whole medium to the final concentrations indicated. Drugs (fenretinide, and various chain length L-threo-sphinganines) were tested both as single agents and in a 3:1 ratio of fenretinide:sphinganine. C18-L-threo-sphinganine, or “safingol,” was also tested and results shown for reference. There are 12 wells treated per drug concentration. Twelve wells receive drug vehicle-only to the appropriate final concentration and serve as controls for the plate. Cells are incubated for 96 hours at 37° C. in ambient air with 5% CO2. Fluorescein diacetate is then added to each well in 0.05 mL media to a final concentration of 8 microgram/mL. Cells are incubated for a further 15 minutes at 37° C. and 0.03 mL of 0.5% eosin Y is added to each well. Total fluorescence of viable cells is then measured by digital imaging microscopy. Results were graphed as the ratio of the fluoresecence of drug-treated wells to non-drug treated control wells (i.e., Survival Fraction). All tests were performed at least twice. Representative results are shown.
(§2) The Combination Index (CI) is a term to describe mathematical modeling of the pharmacologic effects on cytotoxicity (cell death) of two drugs in combination based. Cytotoxic “synergy” is defined as a cell death affect which is greater than would be expected from a simple product of the single agent cytotoxicities alone (i.e. an “additive” effect). By Chou-Talalay analysis, a CI<0.9 on a Fraction Affected (“Fa”, i.e. fraction of cells killed) indicates synergy, with smaller numbers indicating greater synergy; a CI of 0.9-1.1 signifies an additive or near-additive effect; and a CI>1.1 means the drug combination is antagonistic.
Fenretinide and L-threo-sphinganines tested in human lung adenocarcinoma (lung cancer) cell line, A-549.

[2] = system: SJ-G2 Glioblastoma cell line; test: DIMSCAN cytotoxicity, fenretinide + L-threo-sphinganines 3:1 (Example B8); details: 96 h
Experimental: as §1, §2
Fenretinide and L-threo-sphinganines tested in human Glioblastoma (brain cancer) cell line, SJ-G2.

[3] = system: T98G Glioblastoma multiforme cell line; test: DIMSCAN cytotoxicity, fenretinide + L-threo-sphinganines 3:1 (Example B6); details: 96 h
Experimental: as §1, §2
Fenretinide and L-threo-sphinganines tested in human Glioblastoma multiforme (brain cancer) cell line, T98G.

[4] = system: RPMI-8226 Multiple Myeloma cell line; test: DIMSCAN cytotoxicity, fenretinide + L-threo-sphinganines 3:1 (Example B2); details: 96 h
Experimental: as §1, §2
Fenretinide and L-threo-sphinganines tested in human Multiple Myeloma (a cancer of the blood and bone marrow) cell line, RPMI-8226.

[5] = system: A-2058 melanoma cell line; test: DIMSCAN cytotoxicity, fenretinide + L-threo-sphinganines 3:1 (Example B11); details: 96 h
Experimental: as §1, §2
Fenretinide and L-threo-sphinganines tested in human melanoma (skin cancer) cell line, A-2058.

[6] = system: U-118 Glioblastoma cell line; test: DIMSCAN cytotoxicity, fenretinide + L-threo-sphinganines 3:1 (Example B5); design: key to CI (Combination Index): CI<0.9 synergy, 0.9-1.1 additive, >1.1 antagonistic; details: U-118 MG, 96 h
Experimental: as §1, §2
Fenretinide and L-threo-sphinganines tested in human Glioblastoma (brain cancer) cell line, U-118.

[7] = system: HT-29 colorectal adenocarcinoma cell line; test: DIMSCAN cytotoxicity, fenretinide + L-threo-sphinganines 3:1 (Example B10); details: 96 h
Experimental: as §1, §2
Fenretinide and L-threo-sphinganines tested in human colorectal adenocarcinoma (colon cancer) cell line, HT-29.

[8] = system: PC-3 prostate adenocarcinoma cell line; test: DIMSCAN cytotoxicity, fenretinide + L-threo-sphinganines 3:1 (Example B17)
Experimental: as §1, §2
Fenretinide and L-threo-sphinganines tested in human prostate adenocarcinoma (prostate cancer) cell line, PC-3.

[9] = 4-HPR 1.5 μM + L-threo-sphinganine 0.5 μM
[10] = 4-HPR 3 μM + L-threo-sphinganine 1 μM
[11] = 4-HPR 6 μM + L-threo-sphinganine 2 μM
[12] = 4-HPR 9 μM + L-threo-sphinganine 3 μM

For CCCCCCCCCCCCCCCCCC[C@H](O)[C@@H](N)CO [C21], the “CI (Combination Index)” value [1, 9] was 0.9, the “Fa (fraction affected)” value [1, 9] was 0.078 and the “CI (Combination Index)” value [1, 10] was 2.6. For the same compound, the “Fa (fraction affected)” value [1, 10] was 0.044, the “CI (Combination Index)” value [1, 11] was 0.8 and the “Fa (fraction affected)” value [1, 11] was 0.51. For the same compound, the “CI (Combination Index)” value [1, 12] was 0.4, the “Fa (fraction affected)” value [1, 12] was 0.972 and the “CI (Combination Index)” value [2, 9] was 1.5. For the same compound, the “Fa (fraction affected)” value [2, 9] was 0.118, the “CI (Combination Index)” value [2, 10] was 1.9 and the “Fa (fraction affected)” value [2, 10] was 0.299. The “CI (Combination Index)” value [2, 11] was 1.5, the “Fa (fraction affected)” value [2, 11] was 0.809 and the “CI (Combination Index)” value [2, 12] was 0.5. The “Fa (fraction affected)” value [2, 12] was 0.995, the “CI (Combination Index)” value [3, 9] was 1.2 and the “Fa (fraction affected)” value [3, 9] was 0.574. For the same compound, the “CI (Combination Index)” value [3, 10] was 1.0, the “Fa (fraction affected)” value [3, 10] was 0.805 and the “CI (Combination Index)” value [3, 11] was 1.8. The “Fa (fraction affected)” value [3, 11] was 0.832, the “CI (Combination Index)” value [3, 12] was 0.1 and the “Fa (fraction affected)” value [3, 12] was 0.999. For the same compound, the “CI (Combination Index)” value [4, 9] was 1.2, the “Fa (fraction affected)” value [4, 9] was 0.517 and the “CI (Combination Index)” value [4, 10] was 1.6. The “Fa (fraction affected)” value [4, 10] was 0.722, the “CI (Combination Index)” value [4, 11] was 1.6 and the “Fa (fraction affected)” value [4, 11] was 0.955. The “CI (Combination Index)” value [4, 12] was 1.1, the “Fa (fraction affected)” value [4, 12] was 0.999 and the “CI (Combination Index)” value [5, 9] was 0.7. For the same compound, the “Fa (fraction affected)” value [5, 9] was 0.016, the “CI (Combination Index)” value [5, 10] was 1.4 and the “Fa (fraction affected)” value [5, 10] was 0.016. The “CI (Combination Index)” value [5, 11] was 1.9, the “Fa (fraction affected)” value [5, 11] was 0.333 and the “CI (Combination Index)” value [5, 12] was 1.9. The “Fa (fraction affected)” value [5, 12] was 0.955, the “CI (Combination Index)” value [6, 9] was 1.3 and the “Fa (fraction affected)” value [6, 9] was 0.588. For the same compound, the “CI (Combination Index)” value [6, 10] was 1.5, the “Fa (fraction affected)” value [6, 10] was 0.836 and the “CI (Combination Index)” value [6, 11] was 0.6. For the same compound, the “Fa (fraction affected)” value [6, 11] was 0.995, the “CI (Combination Index)” value [6, 12] was 0.5 and the “Fa (fraction affected)” value [6, 12] was 0.999. The “CI (Combination Index)” value [7, 9] was 1.2, the “Fa (fraction affected)” value [7, 9] was 0.149 and the “CI (Combination Index)” value [7, 10] was 1.2. For the same compound, the “Fa (fraction affected)” value [7, 10] was 0.630, the “CI (Combination Index)” value [7, 11] was 1.8 and the “Fa (fraction affected)” value [7, 11] was 0.857. The “CI (Combination Index)” value [7, 12] was 2.3, the “Fa (fraction affected)” value [7, 12] was 0.918 and the CI [8, 9] was 1.7. The Fa [8, 9] was 0.215, the CI [8, 10] was 1.4 and the Fa [8, 10] was 0.350. For the same compound, the CI [8, 11] was 1.6, the Fa [8, 11] was 0.479 and the CI [8, 12] was 0.9. It also gave a Fa [8, 12] of 0.738.
With CCCCCCCCCCCCCCCCC[C@H](O)[C@@H](N)CO [C20, (2S,3S)-2-amino-1,3-icosanediol] the “CI (Combination Index)” value [1, 9] was 2.1, the “Fa (fraction affected)” value [1, 9] was 0.000 and the “CI (Combination Index)” value [1, 10] was 4.1. The “Fa (fraction affected)” value [1, 10] was 0.000, the “CI (Combination Index)” value [1, 11] was 1.1 and the “Fa (fraction affected)” value [1, 11] was 0.017. The “CI (Combination Index)” value [1, 12] was 1.1, the “Fa (fraction affected)” value [1, 12] was 0.499 and the “CI (Combination Index)” value [2, 9] was 0.9. The “Fa (fraction affected)” value [2, 9] was 0.408, the “CI (Combination Index)” value [2, 10] was 0.8 and the “Fa (fraction affected)” value [2, 10] was 0.773. For the same compound, the “CI (Combination Index)” value [2, 11] was 1.1, the “Fa (fraction affected)” value [2, 11] was 0.896 and the “CI (Combination Index)” value [2, 12] was 0.2. The “Fa (fraction affected)” value [2, 12] was 0.999, the “CI (Combination Index)” value [3, 9] was 2.4 and the “Fa (fraction affected)” value [3, 9] was 0.397. The “CI (Combination Index)” value [3, 10] was 0.2, the “Fa (fraction affected)” value [3, 10] was 0.989 and the “CI (Combination Index)” value [3, 11] was greater than 0.1. For the same compound, the “Fa (fraction affected)” value [3, 11] was 1.000, the “CI (Combination Index)” value [3, 12] was greater than 0.1 and the “Fa (fraction affected)” value [3, 12] was 1.000. For the same compound, the “CI (Combination Index)” value [4, 9] was 1.0, the “Fa (fraction affected)” value [4, 9] was 0.583 and the “CI (Combination Index)” value [4, 10] was 1.1. The “Fa (fraction affected)” value [4, 10] was 0.867, the “CI (Combination Index)” value [4, 11] was 0.9 and the “Fa (fraction affected)” value [4, 11] was 0.996. The “CI (Combination Index)” value [4, 12] was 0.3, the “Fa (fraction affected)” value [4, 12] was 1 and the “CI (Combination Index)” value [5, 9] was 0.7. The “Fa (fraction affected)” value [5, 9] was 0.311, the “CI (Combination Index)” value [5, 10] was 1.0 and the “Fa (fraction affected)” value [5, 10] was 0.742. For the same compound, the “CI (Combination Index)” value [5, 11] was 1.7, the “Fa (fraction affected)” value [5, 11] was 0.870 and the “CI (Combination Index)” value [5, 12] was 0.5. The “Fa (fraction affected)” value [5, 12] was 1.000, the “CI (Combination Index)” value [6, 9] was 1.8 and the “Fa (fraction affected)” value [6, 9] was 0.645. For the same compound, the “CI (Combination Index)” value [6, 10] was 0.5, the “Fa (fraction affected)” value [6, 10] was 0.984 and the “CI (Combination Index)” value [6, 11] was 0.3. The “Fa (fraction affected)” value [6, 11] was 0.998, the “CI (Combination Index)” value [6, 12] was 0.3 and the “Fa (fraction affected)” value [6, 12] was 0.999. The “CI (Combination Index)” value [7, 9] was 0.8, the “Fa (fraction affected)” value [7, 9] was 0.287 and the “CI (Combination Index)” value [7, 10] was 0.6. For the same compound, the “Fa (fraction affected)” value [7, 10] was 0.852, the “CI (Combination Index)” value [7, 11] was 0.6 and the “Fa (fraction affected)” value [7, 11] was 0.971. For the same compound, the “CI (Combination Index)” value [7, 12] was 0.4, the “Fa (fraction affected)” value [7, 12] was 0.998 and the CI [8, 9] was 1.0. The Fa [8, 9] was 0.217, the CI [8, 10] was 1.1 and the Fa [8, 10] was 0.393. It also gave a CI [8, 11] of 1.2, a Fa [8, 11] of 0.620 and a CI [8, 12] of 0.5. The Fa [8, 12] was 0.916.
